According to patent publication US20080262097A1, “Formulations” (priority 2005, published 2008):
Values after ≈ are worked out from the molar mass of the structure shown. Like-named read-outs stand apart in the source and are kept apart here.

Tests used:
Format in all cases: cell-based
E faecalis ATCC 29212 = assay: MIC assay; settings: Enterococcus faecalis, ATCC29212
Description: 3. Enterococcus faecalis ATCC 29212—this is a Gram-positive bacterium belonging to the genus Enterococcus. Enterococci have similar properties to streptococci, but differ in their ability to grow on bile-salt containing media such as MacConkey's Agar. Their principal habitat is the mammalian gastrointestinal tract. They cause a number of important infections including endocarditis, urinary tract infections and abscesses. In the context of skin, they are frequently isolated from wound infections. Unlike the streptococci, the enterococci have developed widespread resistance to penicillin. More recently, E. faecalis and E. faecium strains have also developed resistance to the glycopeptide antibiotics such as vancomycin. Vancomycin-Resistant Enterococci (VRE), principally vanA strains of E. faecium, now represent a serious healthcare-acquired infection hazard in the USA, Japan and Western Europe. […]
This is a standard international method for quantitatively assessing the antimicrobial activity of a compound in a liquid medium. […]
The wells were inoculated with a liquid suspension of freshly grown micro-organism and incubated under the conditions described above. […] The MIC value was recorded as the lowest concentration of test compound required to inhibit microbial growth, ie, the lowest concentration for which the liquid in the well remained clear. […]

S. aureus CPHL VISA Mu50 [1] = assay: MBC assay; settings: Staphylococcus aureus
Experimental: (§1) The staphylococci and enterococci were cultured and maintained on Mueller-Hinton Medium (agar and broth) at pH 7.2; they were incubated aerobically at 37° C. for 24 hours.
(§2) This assay, normally carried out after an MIC assay, determines the minimum concentration of a compound that is lethal to the micro-organism being tested.
(§3) These samples were then individually sub-cultured on non-selective agar medium, under the incubation conditions described above. Following incubation they were examined visually for bacterial growth.

S. aureus ATCC 25923 [2] = assay: MBC assay; settings: Staphylococcus aureus, ATCC25923
Experimental: as §1, §2, §3

S. aureus ATCC 12600-U [3] = assay: MBC assay; settings: Staphylococcus aureus, ATCC12600
Experimental: as §1, §2, §3

[4] = test system: Staphylococcus haemolyticus ATCC 29970; assay: MBC assay; settings: ATCC29970
Experimental: as §1, §2, §3

S. aureus ATCC 12606 [5] = assay: MBC assay; settings: Staphylococcus aureus, ATCC12606
Experimental: as §1, §2, §3

S. aureus ATCC 12601 = assay: MIC assay; settings: Staphylococcus aureus, ATCC12601
Experimental: as §1
(§4) This is a standard international method for quantitatively assessing the antimicrobial activity of a compound in a liquid medium. The method used a 96-well microtitre plate, capable of holding about 200 μl of liquid per well. […] The culture media were as described above for the relevant test organisms.
(§5) The wells were inoculated with a liquid suspension of freshly grown micro-organism and incubated under the conditions described above. After incubation, the microtitre plate was examined visually (with the aid of a light box) for cell pellets in and/or opaque wells, which would indicate microbial growth. The MIC value was recorded as the lowest concentration of test compound required to inhibit microbial growth, ie, the lowest concentration for which the liquid in the well remained clear.
(§6) The assays were conducted in duplicate and included both negative (culture medium only) and positive (culture medium, diluting solvent and inoculum) controls.

S. aureus ATCC 12607 = assay: MIC assay; settings: Staphylococcus aureus, ATCC12607
Experimental: as §1, §4, §5, §6

S. aureus ATCC 12605 = assay: MIC assay; settings: Staphylococcus aureus, ATCC12605
Experimental: as §1, §4, §5, §6

S. aureus CPHL VISA Mu50 [6] = assay: MIC assay; settings: Staphylococcus aureus
Experimental: as §1, §4, §5, §6

[7] = test system: Staphylococcus capitis ATCC 27840; assay: MIC assay; settings: ATCC27840
Experimental: as §1, §4, §5, §6

S. aureus ATCC 25923 [8] = assay: MIC assay; settings: Staphylococcus aureus, ATCC25923
Experimental: as §1, §4, §5, §6

[9] = test system: Staphylococcus simulans ATCC 27848; assay: MIC assay; settings: ATCC27848
Experimental: as §1, §4, §5, §6

[10] = test system: Staphylococcus auricularis ATCC 33753; assay: MIC assay; settings: ATCC33753
Experimental: as §1, §4, §5, §6

S. aureus ATCC 12602 = assay: MIC assay; settings: Staphylococcus aureus, ATCC12602
Experimental: as §1, §4, §5, §6

[11] = test system: Staphylococcus aureus ATCC 12600; assay: MIC assay; settings: ATCC12600
Experimental: as §1, §4, §5, §6

[12] = test system: S. epidermidis (NCTC 11047); assay: MIC assay; settings: Staphylococcus epidermidis, NCTC11047
Experimental: as §1, §4, §5, §6

S. aureus ATCC 12600-U [13] = assay: MIC assay; settings: Staphylococcus aureus, ATCC12600
Experimental: as §1, §4, §5, §6

S. aureus CPHL VISA Mu3 = assay: MIC assay; settings: Staphylococcus aureus
Experimental: as §1, §4, §5, §6

S. aureus CPHL EMRSA 17 = assay: MIC assay; settings: Staphylococcus aureus
Experimental: as §1, §4, §5, §6

[14] = test system: Staphylococcus xylosus ATCC 29971; assay: MIC assay; settings: ATCC29971
Experimental: as §1, §4, §5, §6

[15] = test system: Staphylococcus warneri ATCC 27836; assay: MIC assay; settings: ATCC27836
Experimental: as §1, §4, §5, §6

[16] = test system: Staphylococcus hominis ATCC 27844; assay: MIC assay; settings: ATCC27844
Experimental: as §1, §4, §5, §6

[17] = test system: S. saprophyticus NCTC 7292; assay: MIC assay; settings: Staphylococcus saprophyticus, NCTC7292
Experimental: as §1, §4, §5, §6

[18] = test system: S. aureus CPHL GISA HO41340156; assay: MIC assay; settings: Staphylococcus aureus
Experimental: as §1, §4, §5, §6

S. aureus ATCC 12604 = assay: MIC assay; settings: Staphylococcus aureus, ATCC12604
Experimental: as §1, §4, §5, §6

[19] = test system: Staphylococcus haemolyticus ATCC 29970; assay: MIC assay; settings: ATCC29970
Experimental: as §1, §4, §5, §6

S. aureus ATCC 12606 [20] = assay: MIC assay; settings: Staphylococcus aureus, ATCC12606
Experimental: as §1, §4, §5, §6

[21] = test system: Staphylococcus cohnii ATCC 29974; assay: MIC assay; settings: ATCC29974
Experimental: as §1, §4, §5, §6

O=C(OOC(=O)c1ccccc1)c1ccccc1 [benzoyl peroxide]
MIC (E faecalis ATCC 29212; E faecalis ATCC 29212, read-out: MIC): > 250 µg/mL
MBC (S. aureus CPHL VISA Mu50 [1]; S. aureus CPHL VISA Mu50 (Van intermediate), read-out: MBC): 250 µg/mL (≈ 1030 µM)
MBC (S. aureus ATCC 25923 [2]; S. aureus ATCC 25923, read-out: MBC): 250 µg/mL (≈ 1030 µM)
MBC (S. aureus ATCC 12600-U [3]; S. aureus ATCC 12600-U, read-out: MBC): > 250 µg/mL
MBC ([4]; Staphylococcus haemolyticus ATCC 29970, read-out: MBC): 250 µg/mL (≈ 1030 µM)
MBC (S. aureus ATCC 12606 [5]; S. aureus ATCC 12606, read-out: MBC): 250 µg/mL (≈ 1030 µM)
MIC (S. aureus ATCC 12601; S. aureus ATCC 12601, read-out: MIC): 250 µg/mL (≈ 1030 µM)
MIC (S. aureus ATCC 12607; S. aureus ATCC 12607, read-out: MIC): 250 µg/mL (≈ 1030 µM)
MIC (S. aureus ATCC 12605; S. aureus ATCC 12605, read-out: MIC): 250 µg/mL (≈ 1030 µM)
MIC (S. aureus CPHL VISA Mu50 [6]): 125 µg/mL (≈ 516 µM)
MIC ([7]; Staphylococcus capitis ATCC 27840, read-out: MIC): 250 µg/mL (≈ 1030 µM)
MIC (S. aureus ATCC 25923 [8]; S. aureus ATCC 25923, read-out: MIC): 250 µg/mL (≈ 1030 µM)
MIC ([9]; Staphylococcus simulans ATCC 27848, read-out: MIC): > 250 µg/mL
MIC ([10]; Staphylococcus auricularis): 15.6 µg/mL (≈ 64.4 µM)
MIC (S. aureus ATCC 12602): 125 µg/mL (≈ 516 µM)
MIC [11]: 125 µg/mL (≈ 516 µM)
MIC ([12]; S. epidermidis NCTC 11047, read-out: MIC): 250 µg/mL (≈ 1030 µM)
MIC (S. aureus ATCC 12600-U [13]; S. aureus ATCC 12600-U, read-out: MIC): 250 µg/mL (≈ 1030 µM)
MIC (S. aureus CPHL VISA Mu3): 125 µg/mL (≈ 516 µM)
MIC (S. aureus CPHL EMRSA 17): 125 µg/mL (≈ 516 µM)
MIC ([14]; Staphylococcus xylosus ATCC 29971, read-out: MIC): 250 µg/mL (≈ 1030 µM)
MIC ([15]; Staphylococcus warneri ATCC 27836, read-out: MIC): > 250 µg/mL
MIC ([16]; Staphylococcus hominis ATCC 27844, read-out: MIC): 250 µg/mL (≈ 1030 µM)
MIC ([17]; S. saprophyticus NCTC 7292, read-out: MIC): 250 µg/mL (≈ 1030 µM)
MIC [18]: 125 µg/mL (≈ 516 µM)
MIC (S. aureus ATCC 12604): 125 µg/mL (≈ 516 µM)
MIC ([19]; Staphylococcus haemolyticus ATCC 29970, read-out: MIC): 250 µg/mL (≈ 1030 µM)
MIC (S. aureus ATCC 12606 [20]; S. aureus ATCC 12606, read-out: MIC): 250 µg/mL (≈ 1030 µM)
MIC [21]: 62.5 µg/mL (≈ 258 µM)

CC(C)(C)c1cc(O)ccc1O [TBHQ, t-butyl hydroquinone]
MIC (E faecalis ATCC 29212): 15.6 µg/mL
MBC (S. aureus CPHL VISA Mu50 [1]; VISA): 7.8 µg/mL (≈ 46.9 µM)
MBC (S. aureus ATCC 25923 [2]): 7.8 µg/mL (≈ 46.9 µM)
MBC (S. aureus ATCC 12600-U [3]): 7.8 µg/mL (≈ 46.9 µM)
MBC ([4]; Staphylococcus haemolyticus): 7.8 µg/mL (≈ 46.9 µM)
MBC (S. aureus ATCC 12606 [5]): 7.8 µg/mL (≈ 46.9 µM)
MIC (S. aureus ATCC 12601): 7.8 µg/mL (≈ 46.9 µM)
MIC (S. aureus ATCC 12607): 3.9 µg/mL (≈ 23.5 µM)
MIC (S. aureus ATCC 12605): 3.9 µg/mL (≈ 23.5 µM)
MIC (S. aureus CPHL VISA Mu50 [6]): 3.9 µg/mL (≈ 23.5 µM)
MIC ([7]; Staphylococcus capitis): 1.95 to 3.9 µg/mL (≈ 11.7 to 23.5 µM)
MIC (S. aureus ATCC 25923 [8]): 7.8 µg/mL (≈ 46.9 µM)
MIC ([9]; Staphylococcus simulans): 7.8 µg/mL (≈ 46.9 µM)
MIC ([10]; Staphylococcus auricularis ATCC 33753, read-out: MIC): 0.98 µg/mL (≈ 5.9 µM)
MIC (S. aureus ATCC 12602): 3.9 µg/mL (≈ 23.5 µM)
MIC [11]: 3.9 µg/mL (≈ 23.5 µM)
MIC [12]: 3.9 µg/mL (≈ 23.5 µM)
MIC (S. aureus ATCC 12600-U [13]): 3.9 µg/mL (≈ 23.5 µM)
MIC (S. aureus CPHL VISA Mu3): 3.9 µg/mL (≈ 23.5 µM)
MIC (S. aureus CPHL EMRSA 17): 1.95 µg/mL (≈ 11.7 µM)
MIC ([14]; Staphylococcus xylosus): 7.8 µg/mL (≈ 46.9 µM)
MIC ([15]; Staphylococcus warneri): 3.9 µg/mL (≈ 23.5 µM)
MIC ([16]; Staphylococcus hominis): 1.95 µg/mL (≈ 11.7 µM)
MIC [17]: 3.9 µg/mL (≈ 23.5 µM)
MIC [18]: 7.8 µg/mL (≈ 46.9 µM)
MIC (S. aureus ATCC 12604): 7.8 µg/mL (≈ 46.9 µM)
MIC ([19]; Staphylococcus haemolyticus): 3.9 µg/mL (≈ 23.5 µM)
MIC (S. aureus ATCC 12606 [20]): 7.8 µg/mL (≈ 46.9 µM)
MIC [21]: 3.9 µg/mL (≈ 23.5 µM)
